Structures are written as SMILES. Activity calls are given as the source filed them. No cut-off for these calls is given here.

The results in this text go back to ChEMBL document CHEMBL1649471, “Nonhuman primates are protected from smallpox virus or monkeypox virus challenges by the antiviral drug ST-246” (2009).

The subject of experiment [1] is Variola virus. Kind of experiment: Antiviral activity against 1X10'8 PFU Variola virus Harper infected in cynomolgus monkey assessed as white blood cell count in animal at 300 mg/kg/day, po administered immediately after infection followed by 5 ml/kg of 30% suspension of hydrated homogenized monkey biscuit measured 11 days post infection. Format: functional.
Experiment [2] concerns Variola virus. The experiment can be described thus: Antiviral activity against 1X10'8 PFU Variola virus Harper infected in cynomolgus monkey assessed as total protein level in animal at 300 mg/kg/day, po administered 1 day post infection followed by 5 ml/kg of 30% suspension of hydrated homogenized monkey biscuit measured 11 days post infection. In kind it is functional.

Experiment [3] deals with Variola virus. The experiment can be described thus: Antiviral activity against 1X10'8 PFU Variola virus Harper infected in cynomolgus monkey assessed as total protein level in animal at 300 mg/kg/day, po administered immediately after infection followed by 5 ml/kg of 30% suspension of hydrated homogenized monkey biscuit measured 11 days post infection. In kind it is functional.

The test system of experiment [4] is Variola virus. The experiment can be described thus: Antiviral activity against 1X10'8 PFU Variola virus Harper infected in cynomolgus monkey assessed as albumin level in animal at 300 mg/kg/day, po administered immediately after infection followed by 5 ml/kg of 30% suspension of hydrated homogenized monkey biscuit measured 11 days post infection. Format: functional.

For experiment [5], the system named is Variola virus. The experiment can be described thus: Antiviral activity against 1X10'8 PFU Variola virus Harper infected in cynomolgus monkey assessed as blood urea nitrogen level in animal at 300 mg/kg/day, po administered 3 days post infection followed by 5 ml/kg of 30% suspension of hydrated homogenized monkey biscuit measured 9 days post infection. Format: functional.

Experiment [6] relates to Variola virus. Kind of experiment: Antiviral activity against 1X10'8 PFU Variola virus Harper infected in cynomolgus monkey assessed as survival of animal at 300 mg/kg/day, po administered 1 day post infection followed by 5 ml/kg of 30% suspension of hydrated homogenized monkey biscuit measured up to 28 days. In kind it is functional, organism-based.
Experiment [7] relates to Monkeypox virus. Kind of experiment: Antiviral activity against Monkeypox virus Zaire '79 infected in cynomolgus monkey assessed as log decrease in viral load at 300 mg/kg/day, po administered 72 hrs post infection measured after 14 days. In kind it is functional.
Experiment [8] concerns Variola virus. The experiment can be described thus: Antiviral activity against 1X10'8 PFU Variola virus Harper infected in cynomolgus monkey assessed as mean corpuscular hemoglobin concentration in animal at 300 mg/kg/day, po administered 1 day post infection followed by 5 ml/kg of 30% suspension of hydrated homogenized monkey biscuit measured 9 days post infection. Format: functional.

Experiment [9] deals with Variola virus. Kind of experiment: Antiviral activity against 1X10'8 PFU Variola virus Harper infected in cynomolgus monkey assessed as platelet count in animal at 300 mg/kg/day, po administered 1 day post infection followed by 5 ml/kg of 30% suspension of hydrated homogenized monkey biscuit measured 9 days post infection. Format: functional.
Experiment [10] relates to Variola virus. The experiment can be described thus: Antiviral activity against 1X10'8 PFU Variola virus Harper infected in cynomolgus monkey assessed as platelet count in animal at 300 mg/kg/day, po administered 3 days post infection followed by 5 ml/kg of 30% suspension of hydrated homogenized monkey biscuit measured 9 days post infection. Format: functional.
Experiment [11] relates to Monkeypox virus. Kind of experiment: Antiviral activity against Monkeypox virus Zaire '79 infected in cynomolgus monkey assessed as log decrease in viral load at 300 mg/kg/day, po administered 24 hrs post infection followed by 5 ml/kg of monkey biscuit measured after 14 days. In kind it is functional.
For experiment [12], the system named is Variola virus. Kind of experiment: Antiviral activity against 1X10'8 PFU Variola virus Harper infected in cynomolgus monkey assessed as inhibition of virus-mediated lesion formation at 300 mg/kg/day, po administered immediately post infection followed by 5 ml/kg of 30% suspension of hydrated homogenized monkey biscuit measured between day 5 to 8. In kind it is functional, organism-based.

In experiment [13] the test system is Variola virus. Kind of experiment: Antiviral activity against 1X10'8 PFU Variola virus Harper infected in cynomolgus monkey assessed as percent hematocrit level in animal at 300 mg/kg/day, po administered 1 day post infection followed by 5 ml/kg of 30% suspension of hydrated homogenized monkey biscuit measured 11 days post infection. Format: functional.
Experiment [14] relates to Variola virus. The experiment can be described thus: Antiviral activity against 1X10'8 PFU Variola virus Harper infected in cynomolgus monkey assessed as temperature change in animal at 300 mg/kg/day, po administered immediately after infection followed by 5 ml/kg of 30% suspension of hydrated homogenized monkey biscuit measured 11 days post infection. Format: functional.

Experiment [15] has as its system Variola virus. The experiment can be described thus: Antiviral activity against 1X10'8 PFU Variola virus Harper infected in cynomolgus monkey assessed as platelet count in animal at 300 mg/kg/day, po administered immediately after infection followed by 5 ml/kg of 30% suspension of hydrated homogenized monkey biscuit measured 11 days post infection. In kind it is functional.

Experiment [16] concerns Variola virus. Kind of experiment: Antiviral activity against 1X10'8 PFU Variola virus Harper infected in cynomolgus monkey assessed as […] level in animal at 300 mg/kg/day, po administered immediately after infection followed by 5 ml/kg of 30% suspension of hydrated homogenized monkey biscuit measured 11 days post infection. Format: functional.
The subject of experiment [17] is Variola virus. Kind of experiment: Antiviral activity against 1X10'8 PFU Variola virus Harper infected in cynomolgus monkey assessed as mean corpuscular hemoglobin concentration in animal at 300 mg/kg/day, po administered 1 day post infection followed by 5 ml/kg of 30% suspension of hydrated homogenized monkey biscuit measured 11 days post infection. Format: functional.

The test system of experiment [18] is Variola virus. Kind of experiment: Antiviral activity against 1X10'8 PFU Variola virus Harper infected in cynomolgus monkey assessed as decrease in blood viral load at 300 mg/kg/day, po administered 1 day post infection followed by 5 ml/kg of 30% suspension of hydrated homogenized monkey biscuit measured up to 28 days. Format: functional, organism-based.
For experiment [19], the system named is Variola virus. The experiment can be described thus: Antiviral activity against 1X10'8 PFU Variola virus Harper infected in cynomolgus monkey assessed as creatinine level in animal at 300 mg/kg/day, po administered 1 day post infection followed by 5 ml/kg of 30% suspension of hydrated homogenized monkey biscuit measured 9 days post infection. Format: functional.

Experiment [20] relates to Variola virus. Kind of experiment: Antiviral activity against 1X10'8 PFU Variola virus Harper infected in cynomolgus monkey assessed as decrease in blood viral load at 300 mg/kg/day, po administered immediately post infection followed by 5 ml/kg of 30% suspension of hydrated homogenized monkey biscuit measured up to 28 days. In kind it is functional, organism-based.
The subject of experiment [21] is Variola virus. Kind of experiment: Antiviral activity against 1X10'8 PFU Variola virus Harper infected in cynomolgus monkey assessed as albumin level in animal at 300 mg/kg/day, po administered 1 day post infection followed by 5 ml/kg of 30% suspension of hydrated homogenized monkey biscuit measured 11 days post infection. Format: functional.
Experiment [22] concerns Variola virus. The experiment can be described thus: Antiviral activity against 1X10'8 PFU Variola virus Harper infected in cynomolgus monkey assessed as percent hematocrit level in animal at 300 mg/kg/day, po administered 3 days post infection followed by 5 ml/kg of 30% suspension of hydrated homogenized monkey biscuit measured 9 days post infection. In kind it is functional.

The test system of experiment [23] is Variola virus. Kind of experiment: Antiviral activity against 1X10'8 PFU Variola virus Harper infected in cynomolgus monkey assessed as alanine amino transferase level in animal at 300 mg/kg/day, po administered 1 day post infection followed by 5 ml/kg of 30% suspension of hydrated homogenized monkey biscuit measured 11 days post infection. Format: functional.

Experiment [24] has as its system Variola virus. Kind of experiment: Antiviral activity against 1X10'8 PFU Variola virus Harper infected in cynomolgus monkey assessed as mean corpuscular hemoglobin concentration in animal at 300 mg/kg/day, po administered immediately after infection followed by 5 ml/kg of 30% suspension of hydrated homogenized monkey biscuit measured 11 days post infection. In kind it is functional.

As for `O=C(NN1C(=O)[C@@H]2[C@@H]3C=C[C@@H]([C@H]4C[C@@H]34)[C@@H]2C1=O)c1ccc(C(F)(F)F)cc1` [TECOVIRIMAT], the Activity in [1] stood at 8.2 ×10³ /uL; in [2], 6.43 g/dL; in experiment [3], 6.37 g/dL; in [4], 2.47 g/dL; in [5], 10.7 mg/dL; in [8], 30.9 g/dL. Moreover, the Activity in experiment [9] came to 350 ×10³ /uL; in experiment [10] it was 406 ×10³ /uL; in experiment [13], 49.6%; in experiment [14], 38 °C; in experiment [15], 329 ×10³ /uL; in experiment [16], 277 U/L. The Activity in [17] worked out at 31.1 g/dL; in experiment [19] it was 0.9 mg/dL; in experiment [21] it was 2.9 g/dL; in [22] it was 35.9%; in experiment [23], 60.3 U/L; in experiment [24], 31.7 g/dL. The outcome in experiment [6], in [18] and in experiment [20] was Active. The FC in experiment [7] and in experiment [11] was 5 each time. Besides, in experiment [12], the inhibition result is “Active”.
